In patent US20240398812A1 (Caraway Therapeutics, Inc., priority 2021, published 2024):

What was measured:
Type in all cases: cell-based
Details in all cases: Table 3, compounds 101-177
human TRPML1 = human TRPML1 (Homo sapiens, UniProt Q9GZU1); assay: Fluorescent TRPML1 assay (Fluo4-AM calcium fluorescence, HEK-293 Trex cells)
How it was run: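 Tet-inducible HEK-293 Trex cells stably expressing surface-targeted mutant human TRPML1, induced with 0.5 ug/mL doxycycline overnight, loaded with Fluo4-AM and suspended in Ringer's with 10 mM calcium. Compounds tested from 20 μM to 6 nM final, half-log steps, in triplicate; fluorescence (ex 480/em 540) normalised to plate controls, EC50 by non-linear regression.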

TRPML2 = target: T1, TRPML2 (Homo sapiens, UniProt Q8IZK6); assay: Fluorescent TRPML2 assay (as for TRPML1)
T1 construct: expressed in transfected cells
T1 sequence (Q8IZK6 1-566): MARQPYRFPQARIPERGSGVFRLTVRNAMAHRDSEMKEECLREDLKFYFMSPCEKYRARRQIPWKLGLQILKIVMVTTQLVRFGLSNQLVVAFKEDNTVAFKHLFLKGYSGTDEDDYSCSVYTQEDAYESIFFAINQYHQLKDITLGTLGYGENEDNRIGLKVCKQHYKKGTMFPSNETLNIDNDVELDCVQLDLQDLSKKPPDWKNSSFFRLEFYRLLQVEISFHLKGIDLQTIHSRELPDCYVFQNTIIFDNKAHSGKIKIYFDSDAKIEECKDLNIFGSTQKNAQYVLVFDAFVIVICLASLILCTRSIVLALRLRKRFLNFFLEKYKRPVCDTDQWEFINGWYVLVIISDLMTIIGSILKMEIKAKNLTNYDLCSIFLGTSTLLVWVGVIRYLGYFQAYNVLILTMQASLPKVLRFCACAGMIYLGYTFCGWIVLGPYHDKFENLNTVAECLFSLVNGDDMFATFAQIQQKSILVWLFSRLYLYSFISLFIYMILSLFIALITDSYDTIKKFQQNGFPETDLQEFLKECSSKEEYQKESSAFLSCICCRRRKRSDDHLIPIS
Method: HEK-293 Trex cells were stably transfected with a construct consisting of the human coding sequence for TRPML1 cloned into the tet-inducible plasmid pCDNA5 T/O. Mutations were introduced into the TRPML1 sequence to facilitate expression on the cell surface (Silvia Vergarajauregui, Rosa Puertollano Traffic. 2006 March; 7 (3): 337-353). Briefly, the cells are cultured in 150 mm round tissue culture dishes containing 20 mL of media. The day before the assay the cells are rinsed with DPBS —Ca—Mg and then treated briefly with Trypsin-EDTA. The Trypsin-EDTA is diluted with growth media, and cells are counted. 38×10^6 cells are re-plated into 150 mm round tissue culture dishes in media containing 0.5 ug/mL doxycycline to induce expression of hTRPML1.
The day of the experiment cells are lifted from the plates as above and collected by centrifugation. The cells are then suspended in dye loading buffer consisting of Ringer's solution supplemented with 0.1% Pluronic Acid and 1 micromolar Fluo4-AM dye. Cells are loaded for ˜60 minutes in the dark with occasional mixing. The cells are collected by centrifugation, the loading media aspirated, and the cells resuspended in 25 mL Ringer's solution and incubated ˜60 minutes in the dark. The cells are again collected by centrifugation, rinsed in Ringer's Solution and resuspended to 0.2×10^6 cells/mL in modified Ringer's solution containing 10 mM calcium.
Compounds are dissolved to a concentration of 10 millimolar with DMSO. Compound plates are created by dispensing compounds into 384 well black wall clear bottom plates (Greiner 781091). Positive and negative controls are included on each plate. Typically, different amounts of each compound are tested ranging from 100 nanoMoles (20 micromolar final concentration) decreasing in half-log steps to 31 picoMoles (6 nanomolar final concentration). Each concentration is typically tested in triplicate.
50 microliters of dye-loaded cells are dispensed into each well of the compound assay plate created above. The fluorescence in each well is then determined with an excitation wavelength of 480 nm and an emission wavelength of 540 nm using either a Molecular Devices SpectraMax multimode plate reader or a Hamamatsu FDSS/uCell plate imager.
The resulting fluorescence for each well is exported as an ascii file and loaded into our LIMS for analysis. The percent activity of each compound at each concentration is determined by comparison to the positive and negative control wells included in each plate.
Assays for TRPML2 and TRPML3 were performed as above for TRPML1, by substituting the appropriate TRPML2 or TRPML3 subtype for the TRPML1.
EC50 values were calculated using a non-linear regression of Prism. In the table, “A” indicates an EC50 of less than 100 nM, “B” indicates an EC50 range from 100 nM to 500 nM; “C” indicates an EC50 range from 500 nM to 2 μM; and “D” indicates an EC50 greater than 2 μM.

TRPML3 = target: T2, TRPML3 (Homo sapiens, UniProt Q8TDD5); assay: Fluorescent TRPML3 assay (as for TRPML1)
T2 construct: expressed in transfected cells
T2 sequence (Q8TDD5 1-553): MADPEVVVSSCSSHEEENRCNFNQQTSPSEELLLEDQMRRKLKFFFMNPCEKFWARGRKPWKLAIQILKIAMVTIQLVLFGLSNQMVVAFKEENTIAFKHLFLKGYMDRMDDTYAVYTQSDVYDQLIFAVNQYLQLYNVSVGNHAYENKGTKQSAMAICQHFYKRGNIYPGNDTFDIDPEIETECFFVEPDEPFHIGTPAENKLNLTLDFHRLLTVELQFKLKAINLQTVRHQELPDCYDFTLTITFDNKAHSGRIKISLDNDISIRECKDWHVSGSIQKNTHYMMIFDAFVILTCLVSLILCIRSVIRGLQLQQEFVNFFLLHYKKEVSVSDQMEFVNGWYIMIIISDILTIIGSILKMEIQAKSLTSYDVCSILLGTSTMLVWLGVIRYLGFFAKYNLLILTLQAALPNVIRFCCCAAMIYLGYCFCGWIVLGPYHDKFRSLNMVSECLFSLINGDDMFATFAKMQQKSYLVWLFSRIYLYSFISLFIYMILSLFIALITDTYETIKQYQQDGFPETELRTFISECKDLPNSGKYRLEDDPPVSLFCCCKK
How it was run: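 HEK-293 Trex cells with tet-inducible (0.5 ug/mL doxycycline, overnight) surface-targeted mutant channel, Fluo4-AM loaded, suspended in Ringer's with 10 mM calcium. Compounds tested 20 µM to 6 nM final, half-log steps, triplicate; fluorescence at ex 480/em 540 nm. EC50 by non-linear regression of percent activity versus plate controls.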

Sequence of human TRPML1 (Q9GZU1 whole entry L15A/L16A/L577A/L578A, form open): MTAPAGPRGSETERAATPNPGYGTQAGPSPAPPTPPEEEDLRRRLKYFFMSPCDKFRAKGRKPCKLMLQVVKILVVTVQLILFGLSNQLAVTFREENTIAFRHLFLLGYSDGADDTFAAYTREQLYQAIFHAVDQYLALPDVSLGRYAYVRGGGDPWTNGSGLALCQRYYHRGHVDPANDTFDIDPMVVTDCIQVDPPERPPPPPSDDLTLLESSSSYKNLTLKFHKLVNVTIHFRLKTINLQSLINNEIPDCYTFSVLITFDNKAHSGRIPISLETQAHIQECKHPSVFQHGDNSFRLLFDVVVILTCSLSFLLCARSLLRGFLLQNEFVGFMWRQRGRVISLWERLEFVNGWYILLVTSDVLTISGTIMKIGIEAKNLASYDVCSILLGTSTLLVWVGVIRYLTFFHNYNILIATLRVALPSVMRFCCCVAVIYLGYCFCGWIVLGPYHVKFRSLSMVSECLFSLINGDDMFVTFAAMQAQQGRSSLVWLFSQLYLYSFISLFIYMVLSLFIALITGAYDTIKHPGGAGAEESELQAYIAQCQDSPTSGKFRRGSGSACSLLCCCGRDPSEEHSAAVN

Row | EC50 (human TRPML1) [nM] | EC50 (TRPML2) [nM] | EC50 (TRPML3) [nM] | SMILES
1 | < 100 | 100 to 500 | < 100 | C[C@H]1CN(C(=O)CC(C)(C)C)CCN1c1ncnc2c1c(-c1ccccc1F)cn2-c1cc(C#N)ccn1 [Compound 133, (S)-2-(4-(4-(3,3-dimethylbutanoyl)-2-methylpiperazin-1-yl)-5-(2-fluorophenyl)-7H-pyrrolo[2,3-d]pyrimidin-7-yl)isonicotinonitrile]
2 | < 100 | < 100 | < 100 | CC(C)C(=O)N1C[C@H](C)N(c2ncnc3c2c(-c2ccccc2F)cn3-c2cc(C#N)ccn2)C[C@H]1C [Compound 139, 2-(5-(2-fluorophenyl)-4-((2S,5R)-4-isobutyryl-2,5-dimethylpiperazin-1-yl)-7H-pyrrolo[2,3-d]pyrimidin-7-yl)isonicotinonitrile]
3 | < 100 | < 100 | < 100 | C[C@H]1CN(C(=O)CC(C)(C)C(F)(F)F)CCN1c1ncnc2c1c(-c1ccccc1F)cn2-c1cc(C#N)ccn1 [Compound 140, (S)-2-(5-(2-fluorophenyl)-4-(2-methyl-4-(4,4,4-trifluoro-3,3-dimethylbutanoyl)piperazin-1-yl)-7H-pyrrolo[2,3-d]pyrimidin-7-yl)isonicotinonitrile]
4 | < 100 | 100 to 500 | < 100 | C[C@H]1CN(C(=O)CC(C)(C)C(F)(F)F)CCN1c1ncnc2c1c(C1CC1)cn2-c1cc(C#N)ccn1 [Compound 141, (S)-2-(5-cyclopropyl-4-(2-methyl-4-(4,4,4-trifluoro-3,3-dimethylbutanoyl)piperazin-1-yl)-7H-pyrrolo[2,3-d]pyrimidin-7-yl)isonicotinonitrile]
5 | 100 to 500 | 100 to 500 | 100 to 500 | Cc1cc(C#N)cc(-n2cc(-c3ccccc3F)c3c(N4CCN(C(=O)C(C)C)C[C@@H]4C)ncnc32)n1 [Compound 143, (S)-2-(5-(2-fluorophenyl)-4-(4-isobutyryl-2-methylpiperazin-1-yl)-7H-pyrrolo[2,3-d]pyrimidin-7-yl)-6-methylisonicotinonitrile]
6 | < 100 | 100 to 500 | 100 to 500 | CC(C)C(=O)N1CCN(c2ncnc3c2c(N2CCCC2)cn3-c2cc(C#N)ccn2)[C@@H](C)C1 [Compound 144, (S)-2-(4-(4-isobutyryl-2-methylpiperazin-1-yl)-5-(pyrrolidin-1-yl)-7H-pyrrolo[2,3-d]pyrimidin-7-yl)isonicotinonitrile]
7 | 100 to 500 | 500 to 2000 | 100 to 500 | CC(C)C(=O)N1CCN(c2ncnc3c2c(-c2ccccc2F)cn3-c2cc(C#N)n(C)n2)[C@@H](C)C1 [Compound 146, (S)-3-(5-(2-fluorophenyl)-4-(4-isobutyryl-2-methylpiperazin-1-yl)-7H-pyrrolo[2,3-d]pyrimidin-7-yl)-1-methyl-1H-pyrazole-5-carbonitrile]
8 | < 100 | < 100 | < 100 | CC(C)C(=O)N1CCN(c2ncnc3c2c(-c2ccccc2F)cn3-c2cc(C#N)ccn2)C(C)(C)C1 [Compound 149, 2-(5-(2-fluorophenyl)-4-(4-isobutyryl-2,2-dimethylpiperazin-1-yl)-7H-pyrrolo[2,3-d]pyrimidin-7-yl)isonicotinonitrile]
9 | < 100 | 500 to 2000 | < 100 | C[C@@H]1CN(c2ncnc3c2c(C2CC2)cn3-c2cc(C#N)ccn2)[C@@H](C)CN1C(=O)CC(C)(C)C [Compound 153, 2-(5-cyclopropyl-4-((2S,5R)-4-(3,3-dimethylbutanoyl)-2,5-dimethylpiperazin-1-yl)-7H-pyrrolo[2,3-d]pyrimidin-7-yl)isonicotinonitrile]
10 | 100 to 500 | > 2000 | < 100 | CC(C)CC(=O)N1C[C@H](C)N(c2ncnc3c2c(C2CC2)cn3-c2cc(C#N)ccn2)C[C@H]1C [Compound 154]
